The text below walks through data of patent US8133871B2, “Dihydropseudoerythromycin derivatives” (The Kitasato Institute, priority 2005, dated 2012).

This experiment deals with THP-1 cells. The experiment in a line: THP-1 differentiation induction-promoting activity. Format: cell-based. Conditions: lowest concentration necessary to show 50% activity relative to the activity value of erythromycin A at 100 μM, PMA 1-2 μM, 72-96 hr; for minimal effective concentration: Homo sapiens, THP-1. The procedure: As one index of the anti-inflammatory action of the compound of the present invention, the differentiation induction-promoting activity of THP-1 cell was measured. The measurement was performed as shown below.
THP-1 cells (ATCC No. TIB-202) were adjusted to a concentration of 2×10^5 cells/ml with a medium (RPMI 1640), PMA was added thereto to a final concentration of 1-2 μM, and the mixture was dispensed to each well of a 96 well plate by 100 μl. A solution (100 μl) containing a test substance was adjusted to an appropriate concentration with the medium and added to each well. The mixture was stirred by gently shaking the plate, and incubated under 37° C., 5% CO2 conditions for 72-96 hr. Each well was washed with PBS, a medium containing the viable cell measurement reagent SF (Nacalai Tesque) was added at 100 μl/well and the mixture was incubated under the conditions of 37° C., 5% CO2 for 3-5 hr. The absorbance was measured with a plate reader.
In the Table, the activity value is the lowest concentration necessary for the test compound to show a 50% activity value relative to the activity value of erythromycin A at 100 μM in this experiment.
THP-1 differentiation induction-promoting activity: The lowest concentration necessary for each compound to show 50% activity relative to the activity value of erythromycin A at 100 μM.

The minimal effective concentration is the smallest amount tested that counted as effective. A lower minimal effective concentration goes with greater potency.

Molecule `CC[C@@H](O)[C@@](C)(O)[C@@H]1OC(=O)[C@H](C)[C@@H](O[C@H]2CC(C)(OC)[C@@H](O)C(C)O2)[C@H](C)[C@@H](O[C@@H]2OC(C)CC(N(C)Cc3ccccc3)C2O)[C@@]2(C)CC(C)C(O2)[C@@H]1C` (stereo partly shown) [EM902, de(3′-N-methyl)-3′-N-benzyl-9-dihydro-pseudoerythromycin A 6,9-epoxide] returned a minimal effective concentration of 30 µM. This lies in the double-digit micromolar range.

Take `CC[C@H]1OC(=O)O[C@@]1(C)[C@@H]1OC(=O)[C@H](C)C(=O)[C@H](C)[C@@H](O[C@@H]2OC(C)CC(N3CCOCC3)C2O)[C@]2(C)CC(C)C(O2)[C@@H]1C` (stereo partly shown) [EM935, de(3-O-cladinosyl)-9-dihydro-3-keto-de(3′-dimethylamino)-3′-morpholino-pseudoerythromycin A 6,9-epoxide 12,13-carbonate]: the minimal effective concentration was determined as 30 µM.

`COC1(C)C[C@H](O[C@H]2[C@H](C)[C@@H](O[C@@H]3OC(C)CC(N(C)C)C3O)[C@]3(C)CC(C)C(O3)[C@H](C)[C@H](C(C)=O)OC(=O)[C@@H]2C)OC(C)[C@@H]1O` (stereo partly shown) [EM906, de[12-(1-hydroxypropyl)]-9-dihydro-12-oxo-pseudoerythromycin A 6,9-epoxide] had a minimal effective concentration of 30 µM. Molecule `CC[C@@H](O)[C@@](C)(O)[C@@H]1OC(=O)[C@H](C)[C@@H](O[C@H]2CC(C)(OC)[C@@H](O)C(C)O2)[C@H](C)[C@@H](O[C@@H]2OC(C)CC(N(C)C)C2OC(C)=O)[C@]2(C)CC(C)C(O2)[C@@H]1C` (stereo partly shown) [EM913, 2′-O-acetyl-9-dihydro-pseudoerythromycin A 6,9-epoxide] yielded a minimal effective concentration of 30 µM. On the same count and under the same terms, with `CC[C@H]1OC(=O)O[C@@]1(C)[C@@H]1OC(=O)[C@H](C)C(=O)[C@H](C)[C@@H](O[C@@H]2OC(C)CC(N3CCOCC3)C2OC(C)=O)[C@]2(C)CC(C)C(O2)[C@@H]1C` (stereo partly shown) [EM932, 2′-O-acetyl-de(3-O-cladinosyl)-9-dihydro-3-keto-de(3′-dimethylamino)-3′-morpholino-pseudoerythromycin A 6,9-epoxide 12,13-carbonate] the figure was 10 µM. For `CO[C@]1(C)C[C@H](O[C@H]2[C@H](C)[C@@H](O[C@@H]3O[C@H](C)C[C@H](N(C)C)[C@H]3O)[C@@]3(C)C[C@@H](C)[C@H](O3)[C@H](C)[C@H](/C(C)=N/O)OC(=O)[C@@H]2C)O[C@@H](C)[C@@H]1O` [EM907, de[12-(1-hydroxypropyl)]-9-dihydro-12-hydroxyoxime-pseudoerythromycin A 6,9-epoxide], the “THP-1 differentiation induction-promoting activity” value is on record as 30.

The molecule `CC[C@H]1OC(=O)O[C@@]1(C)[C@@H]1OC(=O)[C@H](C)C(=O)[C@H](C)[C@@H](O[C@@H]2OC(C)CC(N(C)C)C2OC(C)=O)[C@]2(C)CC(C)C(O2)[C@@H]1C` (stereo partly shown) [EM917, 2′-O-acetyl-de(3-O-cladinosyl)-9-dihydro-3-keto-pseudoerythromycin A 6,9-epoxide 12,13-carbonate] displayed a minimal effective concentration of 30 µM. The same measure, in the same setting: with `CC[C@@H]1O[C@@]1(C)[C@@H]1OC(=O)[C@H](C)[C@@H](O[C@H]2CC(C)(OC)[C@@H](O)C(C)O2)[C@H](C)[C@@H](O[C@@H]2OC(C)CC(N(C)C)C2O)[C@]2(C)CC(C)C(O2)[C@@H]1C` (stereo partly shown) [EM909, 12,13-epoxy-9-dihydro-pseudoerythromycin A 6,9-epoxide] the figure was 30 µM. On the same count and under the same terms, with `CC[C@@H](O)[C@@](C)(O)[C@@H]1OC(=O)[C@H](C)[C@@H](O[C@H]2CC(C)(OC)[C@@H](O)C(C)O2)[C@H](C)[C@@H](O[C@@H]2OC(C)CC(N(Cc3ccccc3)Cc3ccccc3)C2O)[C@@]2(C)CC(C)C(O2)[C@@H]1C` (stereo partly shown) [EM904, bis-de(3′-N-methyl)-bis-(3′-N-benzyl)-9-dihydro-pseudoerythromycin A 6,9-epoxide] the figure was 10 µM; with `CC[C@H]1OC(=O)O[C@@]1(C)[C@@H]1OC(=O)[C@H](C)[C@@H](O)[C@H](C)[C@@H](O[C@@H]2OC(C)CC(N3CCOCC3)C2O)[C@]2(C)CC(C)C(O2)[C@@H]1C` (stereo partly shown) [EM946, de(3-O-cladinosyl)-9-dihydro-de(3′-dimethylamino)-3′-morpholino-pseudoerythromycin A 6,9-epoxide 12,13-carbonate], 100 µM.

As to `COC1(C)C[C@H](O[C@H]2[C@H](C)[C@@H](O[C@@H]3OC(C)CC(N(C)C)C3O)[C@]3(C)CC(C)C(O3)[C@H](C)[C@H](C(C)O)OC(=O)[C@@H]2C)OC(C)[C@@H]1O` (stereo partly shown) [EM908, de[12-(1-hydroxypropyl)]-9-dihydro-pseudoerythromycin A 6,9-epoxide], the minimal effective concentration is 10 µM. This minimal effective concentration is about 10-fold lower than that of the molecule before. On the same count and under the same terms, with `CC[C@@H](O)[C@@](C)(O)[C@@H]1OC(=O)[C@H](C)[C@@H](O[C@H]2CC(C)(OC)[C@@H](O)C(C)O2)[C@H](C)[C@@H](O[C@@H]2OC(C)CC(N)C2O)[C@]2(C)CC(C)C(O2)[C@@H]1C` (stereo partly shown) [EM903, bis-de(3′-N-methyl)-9-dihydro-pseudoerythromycin A 6,9-epoxide] the figure was 30 µM; with `CC[C@@H](O)[C@@](C)(O)[C@@H]1OC(=O)[C@H](C)C(=O)[C@H](C)[C@H](O[C@@H]2OC(C)CC(N(C)Cc3ccc(Cl)cc3)C2O)[C@]2(C)CC(C)C(O2)[C@@H]1C` (stereo partly shown) [EM949, de(3′-N-methyl)-3′-N-(p-chlorobenzyl)-de(3-O-cladinosyl)-9-dihydro-3-keto-pseudoerythromycin A 6,9-epoxide], 10 µM. The same measure, in the same setting: with `CC[C@@H](O)[C@@](C)(O)[C@@H]1OC(=O)[C@H](C)[C@@H](O)[C@H](C)[C@H](O[C@@H]2OC(C)CC(N(C)Cc3ccc(Cl)cc3)C2O)[C@@]2(C)CC(C)C(O2)[C@@H]1C` (stereo partly shown) [EM925, de(3′-N-methyl)-3′-N-(p-chlorobenzyl)-de(3-O-cladinosyl)-9-dihydro-pseudoerythromycin A 6,9-epoxide] the figure was 30 µM; with `CC[C@@H](OC(C)=O)[C@@](C)(O)[C@@H]1OC(=O)[C@H](C)[C@@H](O[C@H]2CC(C)(OC)C(OC(C)=O)C(C)O2)[C@H](C)[C@@H](O[C@@H]2OC(C)CC(N(C)C)C2O)[C@]2(C)CC(C)C(O2)[C@@H]1C` (stereo partly shown) [EM911, 4″,13-O-diacetyl-9-dihydro-pseudoerythromycin A 6,9-epoxide], 10 µM. Still for that read-out and setting: with `CC[C@H]1OC(C)(C)O[C@@]1(C)[C@@H]1OC(=O)[C@H](C)C(=O)[C@H](C)[C@@H](O[C@@H]2OC(C)CC(N(C)Cc3ccc(Cl)cc3)C2O)[C@]2(C)CC(C)C(O2)[C@@H]1C` (stereo partly shown) [EM947, de(3′-N-methyl)-3′-N-(p-chlorobenzyl)-de(3-O-cladinosyl)-9-dihydro-3-keto-pseudoerythromycin A 6,9-epoxide 12,13-isopropylidene Acetal] the figure was 10 µM; with `CC[C@H]1OC(=O)O[C@@]1(C)[C@@H]1OC(=O)[C@H](C)[C@@H](O)[C@H](C)[C@@H](O[C@@H]2OC(C)CC(N(C)C(=O)OCc3ccccc3)C2OC(=O)OCc2ccccc2)[C@]2(C)CC(C)C(O2)[C@@H]1C` (stereo partly shown) [EM936, de(3′-N-methyl)-2′-O-3′-N-bis(benzyloxycarbonyl)-de(3-O-cladinosyl)-9-dihydro-pseudoerythromycin A 6,9-epoxide 12,13-carbonate], 10 µM; with `CC[C@H]1OC(=O)O[C@@]1(C)[C@@H]1OC(=O)[C@H](C)C(=O)[C@H](C)[C@@H](O[C@@H]2OC(C)CC(N(C)C)C2O)[C@]2(C)CC(C)C(O2)[C@@H]1C` (stereo partly shown) [EM918, de(3-O-cladinosyl)-9-dihydro-3-keto-pseudoerythromycin A 6,9-epoxide 12,13-carbonate], 30 µM. Molecule `CC[C@@H](O)[C@@](C)(O)[C@@H]1OC(=O)[C@H](C)[C@@H](O)[C@H](C)[C@@H](O[C@@H]2OC(C)CC(N(C)C)C2O)[C@]2(C)CC(C)C(O2)[C@@H]1C` (stereo partly shown) [EM910, de(3-O-cladinosyl)-9-dihydro-pseudoerythromycin A 6,9-epoxide] yielded a minimal effective concentration of 100 µM. This minimal effective concentration is about 3.3-fold higher than that of the molecule before.
